This is an account of results in the NIST ThermoML archive (doi:10.1016/j.jct.2008.12.005).

± gives the expanded uncertainty stated by the source.

One data set in a line: activity coefficient (dimensionless); of the first substance listed, at infinite dilution; xn = mol fraction of the nth substance listed. Particulars: 338.15 K; 101 kPa; Liquid; Chromatography; x1 = 0.
For `CCCCO` [butan-1-ol] + CC[S+](CC)CC.O=S(=O)([N-]S(=O)(=O)C(F)(F)F)C(F)(F)F, the activity coefficient was determined as 2.41 ± 0.16.

For the compound `COC(C)(C)C` [2-methoxy-2-methylpropane] + CC[S+](CC)CC.O=S(=O)([N-]S(=O)(=O)C(F)(F)F)C(F)(F)F, the activity coefficient stood at 3 ± 0.2.

For `C=CCCCCC` [1-heptene] + CC[S+](CC)CC.O=S(=O)([N-]S(=O)(=O)C(F)(F)F)C(F)(F)F, the activity coefficient is 14.4 ± 1.

In the case of `c1ccccc1` [benzene] + CC[S+](CC)CC.O=S(=O)([N-]S(=O)(=O)C(F)(F)F)C(F)(F)F, the activity coefficient was found to be 1.13 ± 0.07.

For the compound `C1CCCCCC1` [cycloheptane] + CC[S+](CC)CC.O=S(=O)([N-]S(=O)(=O)C(F)(F)F)C(F)(F)F, the activity coefficient was determined as 15.2 ± 1.

For `C#CCCCCCC` [1-octyne] + CC[S+](CC)CC.O=S(=O)([N-]S(=O)(=O)C(F)(F)F)C(F)(F)F, the activity coefficient amounted to 7.2 ± 0.49.

For the compound `Cc1cccc(C)c1` [1,3-dimethylbenzene] + CC[S+](CC)CC.O=S(=O)([N-]S(=O)(=O)C(F)(F)F)C(F)(F)F, the activity coefficient is 2.34 ± 0.16.

`O` [water] + CC[S+](CC)CC.O=S(=O)([N-]S(=O)(=O)C(F)(F)F)C(F)(F)F: the activity coefficient stood at 2.63 ± 0.18.

As for `Cc1ccccc1C` [1,2-dimethylbenzene] + CC[S+](CC)CC.O=S(=O)([N-]S(=O)(=O)C(F)(F)F)C(F)(F)F, the activity coefficient is 2.1 ± 0.14.

Take `C=CCCCCCC` [oct-1-ene] + CC[S+](CC)CC.O=S(=O)([N-]S(=O)(=O)C(F)(F)F)C(F)(F)F: the activity coefficient stood at 20.4 ± 1.4.

Consider `CCCCCCCC` [octane] + CC[S+](CC)CC.O=S(=O)([N-]S(=O)(=O)C(F)(F)F)C(F)(F)F, for which the activity coefficient came to 39.6 ± 2.7.

With `CCCCCCCCCC` [decane] + CC[S+](CC)CC.O=S(=O)([N-]S(=O)(=O)C(F)(F)F)C(F)(F)F, the activity coefficient came to 80 ± 5.5.

With `C1CCCCC1` [cyclohexane] + CC[S+](CC)CC.O=S(=O)([N-]S(=O)(=O)C(F)(F)F)C(F)(F)F, the activity coefficient stood at 11.6 ± 0.8.

`Cc1ccccc1` [toluene] + CC[S+](CC)CC.O=S(=O)([N-]S(=O)(=O)C(F)(F)F)C(F)(F)F: the activity coefficient was found to be 1.62 ± 0.11.

The data set is the same for the next values; noted with them: 348.15 K; 101 kPa; Liquid; Chromatography; x1 = 0.
Turning to `C=CCCC` [1-pentene] + CC[S+](CC)CC.O=S(=O)([N-]S(=O)(=O)C(F)(F)F)C(F)(F)F, the activity coefficient stood at 7.17 ± 0.49.

With `CCCCC` [pentane] + CC[S+](CC)CC.O=S(=O)([N-]S(=O)(=O)C(F)(F)F)C(F)(F)F, the activity coefficient turned out to be 14.6 ± 1.

On to `CCCCO` [butan-1-ol] + CC[S+](CC)CC.O=S(=O)([N-]S(=O)(=O)C(F)(F)F)C(F)(F)F, for which the activity coefficient came out at 2.2 ± 0.15.

Regarding `COC(C)(C)C` [2-methoxy-2-methylpropane] + CC[S+](CC)CC.O=S(=O)([N-]S(=O)(=O)C(F)(F)F)C(F)(F)F, the activity coefficient is 3.02 ± 0.21.

`C=CCCCCC` [1-heptene] + CC[S+](CC)CC.O=S(=O)([N-]S(=O)(=O)C(F)(F)F)C(F)(F)F: the activity coefficient turned out to be 13.7 ± 0.9.

For `c1ccccc1` [benzene] + CC[S+](CC)CC.O=S(=O)([N-]S(=O)(=O)C(F)(F)F)C(F)(F)F, the activity coefficient stood at 1.13 ± 0.07.

In the case of `C1CCCCCC1` [cycloheptane] + CC[S+](CC)CC.O=S(=O)([N-]S(=O)(=O)C(F)(F)F)C(F)(F)F, the activity coefficient came out at 14.1 ± 1.

Take `C#CCCCCCC` [1-octyne] + CC[S+](CC)CC.O=S(=O)([N-]S(=O)(=O)C(F)(F)F)C(F)(F)F: the activity coefficient worked out at 7.06 ± 0.48.

Regarding `Cc1cccc(C)c1` [1,3-dimethylbenzene] + CC[S+](CC)CC.O=S(=O)([N-]S(=O)(=O)C(F)(F)F)C(F)(F)F, the activity coefficient amounted to 2.36 ± 0.16.

As to `O` [water] + CC[S+](CC)CC.O=S(=O)([N-]S(=O)(=O)C(F)(F)F)C(F)(F)F, the activity coefficient turned out to be 2.33 ± 0.16.

With `Cc1ccccc1C` [1,2-dimethylbenzene] + CC[S+](CC)CC.O=S(=O)([N-]S(=O)(=O)C(F)(F)F)C(F)(F)F, the activity coefficient turned out to be 2.12 ± 0.14.

In the case of `C=CCCCCCC` [oct-1-ene] + CC[S+](CC)CC.O=S(=O)([N-]S(=O)(=O)C(F)(F)F)C(F)(F)F, the activity coefficient was 19.2 ± 1.3.

In the case of `CCCCCCCC` [octane] + CC[S+](CC)CC.O=S(=O)([N-]S(=O)(=O)C(F)(F)F)C(F)(F)F, the activity coefficient was 36.3 ± 2.5.

Consider `CCCCCCCCCC` [decane] + CC[S+](CC)CC.O=S(=O)([N-]S(=O)(=O)C(F)(F)F)C(F)(F)F, for which the activity coefficient is 72.5 ± 5.

For `C1CCCCC1` [cyclohexane] + CC[S+](CC)CC.O=S(=O)([N-]S(=O)(=O)C(F)(F)F)C(F)(F)F, the activity coefficient came out at 10.7 ± 0.7.

As to `Cc1ccccc1` [toluene] + CC[S+](CC)CC.O=S(=O)([N-]S(=O)(=O)C(F)(F)F)C(F)(F)F, the activity coefficient was determined as 1.63 ± 0.11.

Staying with this data set, now noted: 358.15 K; 101 kPa; Liquid; Chromatography; x1 = 0.
On to `C=CCCC` [1-pentene] + CC[S+](CC)CC.O=S(=O)([N-]S(=O)(=O)C(F)(F)F)C(F)(F)F, for which the activity coefficient came out at 6.89 ± 0.47.

On to `CCCCC` [pentane] + CC[S+](CC)CC.O=S(=O)([N-]S(=O)(=O)C(F)(F)F)C(F)(F)F, for which the activity coefficient amounted to 13.5 ± 0.9.

`CCCCO` [butan-1-ol] + CC[S+](CC)CC.O=S(=O)([N-]S(=O)(=O)C(F)(F)F)C(F)(F)F: the activity coefficient worked out at 2 ± 0.14.

Take `COC(C)(C)C` [2-methoxy-2-methylpropane] + CC[S+](CC)CC.O=S(=O)([N-]S(=O)(=O)C(F)(F)F)C(F)(F)F: the activity coefficient was 3.03 ± 0.21.

On to `C=CCCCCC` [1-heptene] + CC[S+](CC)CC.O=S(=O)([N-]S(=O)(=O)C(F)(F)F)C(F)(F)F, for which the activity coefficient stood at 12.9 ± 0.9.

Consider `c1ccccc1` [benzene] + CC[S+](CC)CC.O=S(=O)([N-]S(=O)(=O)C(F)(F)F)C(F)(F)F, for which the activity coefficient was 1.14 ± 0.07.

With `C1CCCCCC1` [cycloheptane] + CC[S+](CC)CC.O=S(=O)([N-]S(=O)(=O)C(F)(F)F)C(F)(F)F, the activity coefficient amounted to 13.1 ± 0.9.

As to `C#CCCCCCC` [1-octyne] + CC[S+](CC)CC.O=S(=O)([N-]S(=O)(=O)C(F)(F)F)C(F)(F)F, the activity coefficient was 6.93 ± 0.47.

For `Cc1cccc(C)c1` [1,3-dimethylbenzene] + CC[S+](CC)CC.O=S(=O)([N-]S(=O)(=O)C(F)(F)F)C(F)(F)F, the activity coefficient worked out at 2.38 ± 0.16.

In the case of `O` [water] + CC[S+](CC)CC.O=S(=O)([N-]S(=O)(=O)C(F)(F)F)C(F)(F)F, the activity coefficient was found to be 2.08 ± 0.14.

Turning to `Cc1ccccc1C` [1,2-dimethylbenzene] + CC[S+](CC)CC.O=S(=O)([N-]S(=O)(=O)C(F)(F)F)C(F)(F)F, the activity coefficient amounted to 2.13 ± 0.14.

With `C=CCCCCCC` [oct-1-ene] + CC[S+](CC)CC.O=S(=O)([N-]S(=O)(=O)C(F)(F)F)C(F)(F)F, the activity coefficient stood at 18.2 ± 1.2.

Turning to `CCCCCCCC` [octane] + CC[S+](CC)CC.O=S(=O)([N-]S(=O)(=O)C(F)(F)F)C(F)(F)F, the activity coefficient was 33.5 ± 2.3.

For `CCCCCCCCCC` [decane] + CC[S+](CC)CC.O=S(=O)([N-]S(=O)(=O)C(F)(F)F)C(F)(F)F, the activity coefficient turned out to be 65.8 ± 4.5.

In the case of `C1CCCCC1` [cyclohexane] + CC[S+](CC)CC.O=S(=O)([N-]S(=O)(=O)C(F)(F)F)C(F)(F)F, the activity coefficient is 10 ± 0.7.

Regarding `Cc1ccccc1` [toluene] + CC[S+](CC)CC.O=S(=O)([N-]S(=O)(=O)C(F)(F)F)C(F)(F)F, the activity coefficient was 1.65 ± 0.11.

The data set is the same for the next values; noted with them: 368.15 K; 101 kPa; Liquid; Chromatography; x1 = 0.
As to `C=CCCC` [1-pentene] + CC[S+](CC)CC.O=S(=O)([N-]S(=O)(=O)C(F)(F)F)C(F)(F)F, the activity coefficient amounted to 6.69 ± 0.46.

As for `CCCCC` [pentane] + CC[S+](CC)CC.O=S(=O)([N-]S(=O)(=O)C(F)(F)F)C(F)(F)F, the activity coefficient was 12.7 ± 0.9.

Turning to `CCCCO` [butan-1-ol] + CC[S+](CC)CC.O=S(=O)([N-]S(=O)(=O)C(F)(F)F)C(F)(F)F, the activity coefficient came to 1.84 ± 0.12.

`COC(C)(C)C` [2-methoxy-2-methylpropane] + CC[S+](CC)CC.O=S(=O)([N-]S(=O)(=O)C(F)(F)F)C(F)(F)F: the activity coefficient was found to be 3.05 ± 0.21.

For `C=CCCCCC` [1-heptene] + CC[S+](CC)CC.O=S(=O)([N-]S(=O)(=O)C(F)(F)F)C(F)(F)F, the activity coefficient was 12.4 ± 0.8.

As for `c1ccccc1` [benzene] + CC[S+](CC)CC.O=S(=O)([N-]S(=O)(=O)C(F)(F)F)C(F)(F)F, the activity coefficient is 1.15 ± 0.07.

Take `C1CCCCCC1` [cycloheptane] + CC[S+](CC)CC.O=S(=O)([N-]S(=O)(=O)C(F)(F)F)C(F)(F)F: the activity coefficient stood at 12.2 ± 0.8.

Consider `C#CCCCCCC` [1-octyne] + CC[S+](CC)CC.O=S(=O)([N-]S(=O)(=O)C(F)(F)F)C(F)(F)F, for which the activity coefficient came out at 6.81 ± 0.46.

For the compound `Cc1cccc(C)c1` [1,3-dimethylbenzene] + CC[S+](CC)CC.O=S(=O)([N-]S(=O)(=O)C(F)(F)F)C(F)(F)F, the activity coefficient came to 2.39 ± 0.16.

For `O` [water] + CC[S+](CC)CC.O=S(=O)([N-]S(=O)(=O)C(F)(F)F)C(F)(F)F, the activity coefficient worked out at 1.88 ± 0.13.

In the case of `Cc1ccccc1C` [1,2-dimethylbenzene] + CC[S+](CC)CC.O=S(=O)([N-]S(=O)(=O)C(F)(F)F)C(F)(F)F, the activity coefficient amounted to 2.15 ± 0.15.

As for `C=CCCCCCC` [oct-1-ene] + CC[S+](CC)CC.O=S(=O)([N-]S(=O)(=O)C(F)(F)F)C(F)(F)F, the activity coefficient is 17.3 ± 1.2.

As for `CCCCCCCC` [octane] + CC[S+](CC)CC.O=S(=O)([N-]S(=O)(=O)C(F)(F)F)C(F)(F)F, the activity coefficient turned out to be 30.8 ± 2.1.

`CCCCCCCCCC` [decane] + CC[S+](CC)CC.O=S(=O)([N-]S(=O)(=O)C(F)(F)F)C(F)(F)F: the activity coefficient is 59.7 ± 4.1.

Take `C1CCCCC1` [cyclohexane] + CC[S+](CC)CC.O=S(=O)([N-]S(=O)(=O)C(F)(F)F)C(F)(F)F: the activity coefficient worked out at 9.43 ± 0.64.

Regarding `Cc1ccccc1` [toluene] + CC[S+](CC)CC.O=S(=O)([N-]S(=O)(=O)C(F)(F)F)C(F)(F)F, the activity coefficient is 1.66 ± 0.11.
